System: Vemurafenib-progressing melanoma tumors
Assay: Melanoma GEM model B-raf V600E; PTEN fl/fl; TyCreER, Vemurafenib-progressing tumors
Type: in vivo, mouse
Conditions: 2nd line after first line Vemurafenib; GDC-0973 7.5 mg/kg PO qd; anti-PDL1 10 mg/kg IP three times weekly
From the text: A melanoma GEM model B-raf^V600E; PTEN^fl/fl; TyCreER was used.
Animals were enrolled into the study once their tumors reached a size greater than or equal to 400 mm^3.
Prior to beginning treatment, each mouse received a biopsy of a melanoma tumor. After the biopsy, mice were allowed to recover for up to one week prior to receiving treatment. Mice were assigned into initial treatment groups (n=20), and treatment commenced at day 0.
When animals in any group reached ˜2000 mm^3, the tumors were biopsied a second time. After the biopsy procedure, mice recovered for up to one week prior to receiving further therapeutic treatment.
Mice were weighed and tumors measured at least once a week until study termination. Mice received treatment each day until a mean tumor volume of 2500 mm^3 was achieved. Mice were then euthanized, and melanoma tumors were collected for histology and assessing molecular changes. Mice were perfused under anesthesia at euthanasia.
Throughout the study, mice were monitored for clinical appearance (body condition, coat appearance, posture, labored breathing, etc.) at least 2 times a week, with increasing frequency, up to daily, depending on severity of adverse clinical signs observed. Moribund animals were euthanized. Mice with a body condition score <2 were euthanized.

SMILES: O=C(c1ccc(F)c(F)c1Nc1ccc(I)cc1F)N1CC(O)([C@@H]2CCCCN2)C1 [Cobimetinib, Methanone, [3,4-difluoro-2-[(2-fluoro-4-iodophenyl)amino]phenyl][3-hydroxy-3-(2S)-2-piperidinyl-1-azetidinyl]-]
- effect on tumor growth (percent tumor volume change over time, FIG. 1): initial tumor regression, but this response was not sustained and tumor re-growth was observed

Source: US10946093B2, “Methods of treating cancer using PD-1 axis binding antagonists and MEK inhibitors” (Genentech, Inc., priority 2014, dated 2021)
